Test results from patent publication US9078917B2, “Extract of Phaleria macrocarpa as an antineoplastic, anti-inflammatory and antiangiogenic agent” (PT. Dexa Medica, priority 2008, dated 2015).

What was measured:
Assay type in all cases: cell-based
[1] = system: cPLA2 mRNA expression; experiment: cPLA2 RT-PCR in serum-free MDA-MB-231 cells; conditions: TPA versus control, serum-free medium; FIG. 12
Description: (§1) MDA-MB-231 cells were cultured in supplemented medium, then the cells were incubated at 37° C., CO2 5%. MDA-MB-231 cells were cultured in 6-well plates. A day before treatment administration, medium was changed with serum-free medium for 24 hours. Treatment administration was done by administering various doses of Phaleria macrocarpa extract dissolved in organic solvent. RNA isolation was conducted using Trizol. The RNAs then were used in RT-PCR process using specific primer for each gene we used. RT-PCR reactions were performed in PCR machines with optimized conditions. RT-PCR products were analyzed using electrophoresis technique on agarose gel 2%, and quantified using Chemidoc.

[2] = system: VEGF-C mRNA expression; experiment: VEGF-C RT-PCR in serum-free MDA-MB-231 cells; conditions: TPA versus control, serum-free medium; FIG. 13
Description: as §1

[3] = system: COX-1 mRNA expression; experiment: COX-1 RT-PCR in serum-free MDA-MB-231 cells; conditions: TPA alone versus control; FIG. 11
Description: as §1

In the case of `CCCCCCCCCCCCCC(=O)O[C@@H]1[C@@H](C)[C@@]2(O)[C@@H](C=C(CO)C[C@]3(O)C(=O)C(C)=C[C@@H]23)[C@@H]2C(C)(C)[C@]12OC(C)=O` [TPA], the “cPLA2 mRNA expression” value [1] is reported as “increase in cPLA2 mRNA expression significantly”, the “VEGF-C gene in mRNA level” value [2] is reported as “significant increase of VEGF-C gene” and the “mRNA expression of COX-1” value [3] is reported as “did not show any significant differences compared to control”.
